Reference: paper PMC8793051 (ACS Omega, 2022)

Key:
[1] = system: oligo-2: d(CGATGTACATCG)2; assay: Fluorescence titration; format: binding; settings: 20 °C, pH 7.2
[2] = system: oligo-1: d(CGCGAATTCGCG)2; assay: Fluorescence titration; format: binding; settings: 20 °C, pH 7.2
[3] = Behaviour of HCl salt in cell culture media; format: physicochemical

Row | Ka binding affinity with oligo-2 [1] | Ka binding affinity with oligo-1 [2] | behaviour of HCl salt in cell culture media [3] | SMILES
1 | 3 × 10^6 M^1 | 7 × 10^6 M^–1 | – | CN1CCN(c2ccc3[nH]c(-c4ccc5[nH]c(-c6ccc(C(F)(F)F)cc6)nc5c4)nc3c2)CC1 [10b, 5-(4-Methylpiperazin-1-yl)-2′-(4-(trifluoromethyl)phenyl)-1H,1′H-2,5′-Bibenzo[d]imidazole]
2 | 2 × 10^6 M^1 | 7 × 10^6 M^–1 | – | CCCN1CCN(c2ccc3[nH]c(-c4ccc5[nH]c(-c6ccc(C(F)(F)F)cc6)nc5c4)nc3c2)CC1 [11b, 2-(4-(Trifluoromethyl)phenyl)-5-(5-(4-propylpiperazin-1-yl)-1H-benzo[d]imidazol-2-yl)-1H-benzo[d]imidazole]
3 | 2 × 10^6 M^1 | – | – | CCCCN1CCN(c2ccc3nc(-c4ccc5nc(-c6cc(OC)ccc6OC)[nH]c5c4)[nH]c3c2)CC1 [12c, 6-(4-Butylpiperazin-1-yl)-2′-(2,5-dimethoxyphenyl)-1H,3′H-2,5′-bibenzo[d]imidazole]
4 | 3 × 10^6 M^1 | 7 × 10^6 M^–1 | – | CCCN1CCN(c2ccc3nc(-c4ccc5nc(-c6cc(OC)ccc6OC)[nH]c5c4)[nH]c3c2)CC1 [11c, 2′-(2,5-Dimethoxyphenyl)-6-(4-propylpiperazin-1-yl)-1H,3′H-2,5′-bibenzo[d]imidazole]
5 | 1 × 10^6 M^1 | 5 × 10^6 M^–1 | precipitating in cell culture media | COc1ccc(OC)c(-c2nc3ccc(-c4nc5ccc(N6CCN(CCN(C)C)CC6)cc5[nH]4)cc3[nH]2)c1 [13c, 2-(4-(2′-(2,5-Dimethoxyphenyl)-1H,3′H-[2,5′-bibenzo[d]imidazol]-6-yl)piperazin-1-yl)-N,N-dimethylethan-1-amine]
6 | 5 × 10^6 M^1 | 2 × 10^7 M^–1 | – | CCOc1ccc(-c2nc3ccc(-c4nc5ccc(N6CCN(C)CC6)cc5[nH]4)cc3[nH]2)cc1 [Hoechst 33342, reference compound]
7 | 1 × 10^6 M^1 | – | – | CCCN1CCN(c2ccc3[nH]c(-c4ccc5[nH]c(-c6cc(OC)c(OC)c(OC)c6)nc5c4)nc3c2)CC1 [11d, 5-(4-Propylpiperazin-1-yl)-2′-(3,4,5-trimethoxyphenyl)-1H,1′H-2,5′-bibenzo[d]imidazole]
8 | 1 × 10^6 M^1 | 5 × 10^6 M^–1 | precipitating in cell culture media | COc1cc(-c2nc3ccc(-c4nc5ccc(N6CCN(CCN(C)C)CC6)cc5[nH]4)cc3[nH]2)cc(OC)c1OC [13d, 2-(4-(2′-(3,4,5-Trimethoxyphenyl)-1H,3′H-[2,5′-bibenzo[d]imidazol]-6-yl)piperazin-1-yl) N,N-Dimethylethan-1-amine]
9 | 4 × 10^6 M^1 | – | – | CCCCN1CCN(c2ccc3[nH]c(-c4ccc5[nH]c(-c6cc(OC)c(OC)c(OC)c6)nc5c4)nc3c2)CC1 [12d, 5-(4-Butylpiperazin-1-yl)-2-(2-(3,4,5-trimethoxyphenyl)-1H-benzo[d]imidazol-5-yl)-1H-benzo[d]imidazole]
10 | 2 × 10^6 M^1 | 7 × 10^6 M^–1 | – | CCOc1ccc(-c2nc3cc(-c4nc5cc(N6CCN(C)CC6)ccc5[nH]4)ccc3[nH]2)cc1OCC [10a, 2-(2-(3,4-Diethoxyphenyl)-1H-benzo[d]imidazol-5-yl)-5-(4-methylpiperazin-1-yl)-1H-benzo[d]imidazole]
11 | 3 × 10^6 M^1 | 1 × 10^7 M^–1 | – | CCCCN1CCN(c2ccc3[nH]c(-c4ccc5[nH]c(-c6ccc(OCC)cc6)nc5c4)nc3c2)CC1 [12e, 5-(4-Butylpiperazin-1-yl)-2′-(4-ethoxyphenyl)-1H,1′H-2,5′-bibenzo[d]imidazole]
12 | 2 × 10^6 M^1 | 9 × 10^6 M^–1 | precipitating in cell culture media | CCOc1ccc(-c2nc3ccc(-c4nc5ccc(N6CCN(CCN(C)C)CC6)cc5[nH]4)cc3[nH]2)cc1OCC [13a, 2-(4-(2′-(3,4-Diethoxyphenyl)-1H,3′H-[2,5′-bibenzo[d]imidazol]-6-yl)piperazin-1-yl)N,N-dimethylethan-1-amine]
13 | 2 × 10^6 M^1 | 8 × 10^6 M^–1 | – | COc1ccc(OC)c(-c2nc3ccc(-c4nc5ccc(N6CCN(C)CC6)cc5[nH]4)cc3[nH]2)c1 [10c, 2′-(2,5-Dimethoxyphenyl)-6-(4-methylpiperazin-1-yl)-1H,3′H-2,5′-bibenzo[d]imidazole]
